Experimental data from patent US20230183640A1, “METABOLIC INHIBITORS WITH EFFICACY FOR INHIBITING SULFIDE PRODUCTION IN HARSH ENVIRONMENTS” (MC (US) 3 LLC, priority 2020, published 2023).

Tests used:
Type in all cases: cell-based
[1] = test system: sulfate reducing bacteria; assay: Efficacy in inhibiting H2S production from sulfate reducing bacteria; details: anaerobic conditions
Method: To understand the hydrogen sulfide inhibition efficacy of the N-hydroxycarboxamide compounds of the present invention, several compounds were tested. Some compounds that can be used in this H2S inhibiting composition are disclosed in Table 2. For the testing procedures, the compounds were dissolved in DMSO, resulting in a stock solution of about 8000-100000 ppm, which was subsequently diluted in 96-well plates or 10 mL serum vials containing media and selected culture to give varying concentrations from 0.09 to 1000 ppm of the compounds in final solution for efficacy testing.
Strains of commonly found bacteria were used for testing the efficacy of the compounds, viz. Desulfovibrio alaskensis, Desulfovibrio longus and Desulfovibrio gabonensis. Media for the cultures was also prepared by using a standard method. The cultures were aseptically used and incubated under anaerobic conditions. Two well established methods were used for testing various compounds:
The compounds C1, C12, C14, C15 and C16 were tested individually to understand each of their efficacies in inhibiting the H2S production from sulfate reducing bacteria, under standard temperature and pressure conditions. The efficacy of compounds C14 and C15 against hydrogen sulfide production are disclosed in Example 1, Tables 6 and 7.

[2] = test system: Desulfovibrio longus 51456; assay: H2S and Log (Growth) efficacy against SRB, 96-Well Plate Method
Method: (§1) A lyophilized Desulfovibrio alaskensis 14563, Desulfovibrio longus 51456, and Desulfovibrio gabonensis 700201 pure cultures received from ATCC were resuspended individually in 500 ul of MB 1250. Aseptically, the content was transferred to a 5-mL tube of MB1250 medium. The cultures were incubated in an anaerobic chamber at 30° C. for 72 hrs. Subsequently, an individual stock culture with a final concentration of 25% glycerol were prepared by adding equal volumes of culture and 50% glycerol. 1 ml of the cultures were then transferred to 2-ml cryogenic vials and stored at −80° C. The purity of the stock cultures was evaluated through PCR, by amplifying the 16S rDNA region, and thus, it was verified that the original ATCC sample was a pure culture. 48-hour cultures of ATCC Desulfovibrio alaskensis 14563, Desulfovibrio longus 51456, and Desulfovibrio gabonensis 700201 were prepared in an anaerobic chamber. Each culture was prepared as a 1:10 culture by taking 1 milliliter (mL) of a pure culture and inoculating 9 milliliters (mL) of fresh MB1250 media. The Desulfovibrio alaskensis 14563 and Desulfovibrio gabonensis 700201 were all grown at 30° C. and the Desulfovibrio longus 51456 culture was grown at 35° C.
(§2) After the 48-hour incubation, 600 microliters (μL) were taken from each culture and optical density (OD) was measured using a Thermofisher Spectronic 200 Spectrophotometer at 600 nm. Each culture was diluted to 0.05 OD600 in fresh MB1250 media and added to the 96 well plates. Edge wells were not used due to their inherent variability and evaporation of the media. Each of the components were added at their respective concentrations for a final volume of 500 μL per well. In Table 3, 6 and 7, the concentrations of the compound used for the experiments are listed. Each experiment was done with at least three replicates for different treatments and non-treatment controls. From these test plates, 200 μL were taken and placed into two separate plates for 3 and 6 days. Plates were then sealed with a titer-top and placed into anaerobic boxes and incubated in an anaerobic incubator at 30° C.
(§3) At each time point, sulfide samples were taken, and enumeration plates were made. Enumeration plates were made to determine the log growth in each dosed sample. For this process, enumeration plates were prepared by adding 180 μL fresh media MB1250 containing 0.01 wt % ferrous ammonium sulfate. 20 μL was taken from each well of the challenge plates and transferred to the enumeration plates using a 20-200 μL multichannel pipette. Enumeration plates were mixed three times using the multichannel pipette and serial diluted down the plate tenfold (20 μL into 180 μL). This serial dilution process was repeated for all challenge plate rows giving a total of 6 enumeration plates.
(§4) After 7 days these enumeration plates were read. The ferrous ammonium sulfate in each plate would be converted to iron sulfide, changing wells with SRB growth from clear to black. By counting the number of black wells in a row, the log growth from the original well in the challenge plate can be determined.
(§5) To determine hydrogen sulfide production in each sample, sulfide samples were also taken from each challenge plate. From each well, 9 μL were taken and added to 60 μL of 2% zinc acetate with 0.02% acetic acid. Then, 180 μL of milliQ water was added. 60 μL of stock solution 1 containing 64% sulfuric acid, <1% Dimethyl-4-phenylenediamine (DMPD), water to 100% was added to each well on the plates. This was followed by 3 μL of stock solution 3 containing 50% Iron (III) chloride. All chemicals are ordered from Fisher Scientific and used as received. These were mixed three times and read after 15 minutes. The plates were read at 670 nm using a Biotek microplate reader. Absorbance readings were converted to mM using a standard curve and this was converted to parts per million using the molar mass of sulfur. […]

[3] = test system: Desulfovibrio gabonensis 700201; assay: as above
Method: as §1, §2, §3, §4, §5

For `O=C(CN1C(=O)c2cccc3cccc(c23)C1=O)NO` [C1], the “efficacy for inhibiting hydrogen sulfide production” value [1] was “highest efficacy”, the H2S ([2]; 3 days, 6.4 PPM) was 9.8 PPM and the “Log (Growth)” value ([2]; 3 days, 6.4 PPM) was 0.0. For the same molecule, the H2S ([2]; 3 days, 12.8 PPM) was 9.3 PPM, the “Log (Growth)” value ([2]; 3 days, 12.8 PPM) was 0.0 and the H2S ([2]; 3 days, 25.6 PPM) was 9.1 PPM. The “Log (Growth)” value ([2]; 3 days, 25.6 PPM) was 0.0, the H2S ([2]; 3 days, 51.3 PPM) was 8.8 PPM and the “Log (Growth)” value ([2]; 3 days, 51.3 PPM) was 0.0. The H2S ([2]; 3 days, 102.5 PPM) was 8.6 PPM, the “Log (Growth)” value ([2]; 3 days, 102.5 PPM) was 0.0 and the H2S ([2]; 3 days, 205.0 PPM) was 8.7 PPM. For the same molecule, the “Log (Growth)” value ([2]; 3 days, 205.0 PPM) was 0.0, the H2S ([2]; 6 days, 6.4 PPM) was 8.1 PPM and the “Log (Growth)” value ([2]; 6 days, 6.4 PPM) was 0.0. For the same molecule, the H2S ([2]; 6 days, 12.8 PPM) was 7.9 PPM, the “Log (Growth)” value ([2]; 6 days, 12.8 PPM) was 0.0 and the H2S ([2]; 6 days, 25.6 PPM) was 7.3 PPM. For the same molecule, the “Log (Growth)” value ([2]; 6 days, 25.6 PPM) was 0.0, the H2S ([2]; 6 days, 51.3 PPM) was 7.2 PPM and the “Log (Growth)” value ([2]; 6 days, 51.3 PPM) was 0.0. For the same molecule, the H2S ([2]; 6 days, 102.5 PPM) was 7.5 PPM, the “Log (Growth)” value ([2]; 6 days, 102.5 PPM) was 0.0 and the H2S ([2]; 6 days, 205.0 PPM) was 8.1 PPM. The “Log (Growth)” value ([2]; 6 days, 205.0 PPM) was 0.0, the H2S ([3]; 3 days, 6.4 PPM) was 12.4 PPM and the “Log (Growth)” value ([3]; 3 days, 6.4 PPM) was 0.0. For the same molecule, the H2S ([3]; 3 days, 12.8 PPM) was 12.1 PPM, the “Log (Growth)” value ([3]; 3 days, 12.8 PPM) was 0.0 and the H2S ([3]; 3 days, 25.6 PPM) was 11.1 PPM. The “Log (Growth)” value ([3]; 3 days, 25.6 PPM) was 0.0, the H2S ([3]; 3 days, 51.3 PPM) was 12.3 PPM and the “Log (Growth)” value ([3]; 3 days, 51.3 PPM) was 0.0. For the same molecule, the H2S ([3]; 3 days, 102.5 PPM) was 10.5 PPM, the “Log (Growth)” value ([3]; 3 days, 102.5 PPM) was 0.0 and the H2S ([3]; 3 days, 205.0 PPM) was 10.0 PPM. For the same molecule, the “Log (Growth)” value ([3]; 3 days, 205.0 PPM) was 0.0, the H2S ([3]; 6 days, 6.4 PPM) was 18.1 PPM and the “Log (Growth)” value ([3]; 6 days, 6.4 PPM) was 0.0. For the same molecule, the H2S ([3]; 6 days, 12.8 PPM) was 10.4 PPM, the “Log (Growth)” value ([3]; 6 days, 12.8 PPM) was 0.0 and the H2S ([3]; 6 days, 25.6 PPM) was 9.4 PPM. For the same molecule, the “Log (Growth)” value ([3]; 6 days, 25.6 PPM) was 0.0, the H2S ([3]; 6 days, 51.3 PPM) was 8.4 PPM and the “Log (Growth)” value ([3]; 6 days, 51.3 PPM) was 0.0. For the same molecule, the H2S ([3]; 6 days, 102.5 PPM) was 8.6 PPM, the “Log (Growth)” value ([3]; 6 days, 102.5 PPM) was 0.0 and the H2S ([3]; 6 days, 205.0 PPM) was 8.5 PPM. The “Log (Growth)” value ([3]; 6 days, 205.0 PPM) was 0.0.
